Data as given in patent publication US9381381B2, “Treatment of nail infections with no” (Aberdeen University, priority 2001, dated 2016).

Assays:
onychomycosis = details: cited from earlier work; for Safety concerns: in vivo, po
A. niger = assay: Franz cell nail bioassay for anti-fungal gas penetration across a human nail; format: cell-based, Aspergillus niger; details: 4 applications every 2 h 10 min, read after 24 hours; agar 8 mm below nail
Method: After the agar had cooled and set, 25 μl of an A. niger spore suspension was pipetted onto the surface of the agar and a section of human nail fitted in an air-tight manner above the outlet hole, and clamped in place. The cells were then incubated at 32° C. for 24 h to obtain a carpet of mycelium.
The top of the funnel for all of the Franz cells was then covered with Parafilm. The cells were left at room temperature. After a period of 2 h 10 min, the solutions in each Franz cell were removed and replaced with an equivalent solution and the process repeated every 2 h and 10 min for a further […] applications, giving a total of 4 applications. After the final application of solution, the cells were left covered at room temperature, to allow slow growth of the organism for 24 h.

Structure (SMILES) | Safety concerns (onychomycosis) | Cure rates (onychomycosis; oral treatment) [%] | Growth of A. niger mycelium under human nail (A. niger)
CN(C/C=C/C#CC(C)(C)C)Cc1cccc2ccccc12 [terbinafine] | liver toxicity, severe skin reactions and drug interactions | ~70 | 
O=C(O)CC(O)(CC(=O)O)C(=O)O [citric acid] |  |  | full carpet of growth of mycelium
O=NO [sodium nitrite] |  |  | full carpet of growth of mycelium
CCC(C)n1ncn(-c2ccc(N3CCN(c4ccc(OCC5COC(Cn6cncn6)(c6ccc(Cl)cc6Cl)O5)cc4)CC3)cc2)c1=O (centres unmarked) [itraconazole] | liver toxicity, severe skin reactions and drug interactions |  | 
